Reference: PubChem BioAssay (NCI)
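Step 1: Grow cells in 96-well plates. Step 2: Expose to compound for 48 hours at 5 concentrations. Step 3: Interpolate endpoints linearly; if unreached, use highest concentration. GI50 is the concentration that inhibits growth by half. The concentration for full growth arrest is given as TGI.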

Columns and labels:
Experiment in all cases: inhibition of tumour cell growth, NCI panel, 48 h
[1] = tested on: SK-OV-3 ovarian
[2] = tested on: UACC-62 melanoma
[3] = tested on: SNB-19 CNS
[4] = tested on: U251 CNS
[5] = tested on: RPMI-8226 leukemia
[6] = tested on: IGROV1 ovarian
[7] = tested on: OVCAR-5 ovarian
[8] = tested on: SK-MEL-28 melanoma
[9] = tested on: SNB-75 CNS
[10] = tested on: RXF 393 renal
[11] = tested on: CCRF-CEM leukemia
[12] = tested on: SF-295 CNS
[13] = tested on: OVCAR-4 ovarian
[14] = tested on: MOLT-4 leukemia
[15] = tested on: MDA-MB-231 breast
[16] = tested on: CAKI-1 renal
[17] = tested on: HS 578T breast
[18] = tested on: A549 NSCLC
[19] = tested on: MCF7 breast
[20] = tested on: OVCAR-3 ovarian
[21] = tested on: BT-549 breast
[22] = tested on: PC-3 prostate
[23] = tested on: A498 renal
[24] = tested on: MDA-MB-435
[25] = tested on: HCT-116 colon
[26] = tested on: SR leukemia
[27] = tested on: SN12C renal
[28] = tested on: SK-MEL-5 melanoma
[29] = tested on: LOX IMVI melanoma
[30] = tested on: HL-60(TB) leukemia
[31] = tested on: SK-MEL-2 melanoma
[32] = tested on: M14 melanoma
[33] = tested on: KM12 colon
[34] = tested on: HOP-92 NSCLC
[35] = tested on: TK-10 renal
[36] = tested on: NCI-H226 lung
[37] = tested on: NCI-H460 lung
[38] = tested on: HT29 colon
[39] = tested on: ACHN renal
[40] = tested on: HCC-2998 colon
[41] = tested on: UACC-257 melanoma
[42] = tested on: HOP-62 NSCLC
[43] = tested on: T-47D breast
[44] = tested on: SF-539 CNS
[45] = tested on: COLO 205 colon
[46] = tested on: HCT-15 colon
[47] = tested on: UO-31 renal
[48] = tested on: EKVX NSCLC
[49] = tested on: K-562 leukemia
[50] = tested on: NCI-H23 lung
[51] = tested on: SW-620 colon
[52] = tested on: MALME-3M melanoma
[53] = tested on: NCI/ADR-RES ovarian
[54] = tested on: 786-0 renal
[55] = tested on: DU-145 prostate
[56] = tested on: OVCAR-8 ovarian
[57] = tested on: SF-268 CNS

With O=C(Nc1ccccc1)Nc1nc2ccc([N+](=O)[O-])cc2s1 the GI50 [1] was 2330 nM, the TGI [1] was 9.58 µM and the GI50 [2] was 860 nM. It also gave a TGI [2] of 8.13 µM, a GI50 [3] of 1740 nM and a TGI [3] of 12.9 µM. It also gave a GI50 [4] of 1970 nM, a TGI [4] of 12.9 µM and a GI50 [5] of 690 nM. The TGI [5] was 3.47 µM, the GI50 [6] was 2490 nM and the TGI [6] was 14.9 µM. It also gave a GI50 [7] of 4.33 µM, a TGI [7] of 17.4 µM and a GI50 [8] of 2450 nM. It also gave a TGI [8] of 12.1 µM, a GI50 [9] of 1870 nM and a TGI [9] of 5.74 µM. For the same compound, the GI50 [10] was 548 nM, the TGI [10] was 3.02 µM and the GI50 [11] was 1290 nM. The TGI [11] was 13.1 µM, the GI50 [12] was 1230 nM and the TGI [12] was 3.11 µM. For the same compound, the GI50 [13] was 1310 nM, the TGI [13] was 12.4 µM and the GI50 [14] was 1960 nM. It also gave a TGI [14] of 7.14 µM, a GI50 [15] of 1820 nM and a TGI [15] of 4.56 µM. For the same compound, the GI50 [16] was 1620 nM, the TGI [16] was 7.91 µM and the GI50 [17] was 2720 nM. It also gave a TGI [17] of 12.4 µM, a GI50 [18] of 2530 nM and a TGI [18] of 14.4 µM. The GI50 [19] was 1420 nM, the TGI [19] was 10.8 µM and the GI50 [20] was 1910 nM. It also gave a TGI [20] of 11.6 µM, a GI50 [21] of 2020 nM and a TGI [21] of 6.5 µM. It also gave a GI50 [22] of 1690 nM, a TGI [22] of 9.89 µM and a GI50 [23] of 254 nM. For the same compound, the TGI [23] was 1710 nM, the GI50 [24] was 2160 nM and the TGI [24] was 9.74 µM. For the same compound, the GI50 [25] was 2220 nM, the TGI [25] was 10.1 µM and the GI50 [26] was 746 nM. For the same compound, the TGI [26] was 4.17 µM, the GI50 [27] was 1580 nM and the TGI [27] was 6.79 µM. The GI50 [28] was 471 nM, the TGI [28] was 1750 nM and the GI50 [29] was 1220 nM. The TGI [29] was 3.68 µM, the GI50 [30] was 1460 nM and the TGI [30] was 3.57 µM. The GI50 [31] was 1690 nM, the TGI [31] was 5.15 µM and the GI50 [32] was 2640 nM. For the same compound, the TGI [32] was 8.48 µM, the GI50 [33] was 1770 nM and the TGI [33] was 10.6 µM. The GI50 [34] was 324 nM, the TGI [34] was 2610 nM and the GI50 [35] was 2830 nM. For the same compound, the TGI [35] was 10.7 µM, the GI50 [36] was 1370 nM and the TGI [36] was 4.3 µM. The GI50 [37] was 2060 nM, the TGI [37] was 10.5 µM and the GI50 [38] was 3.46 µM. The TGI [38] was 12.1 µM, the GI50 [39] was 2040 nM and the TGI [39] was 10.2 µM. For the same compound, the GI50 [40] was 1380 nM, the TGI [40] was 9.09 µM and the GI50 [41] was 1490 nM. It also gave a TGI [41] of 7.7 µM, a GI50 [42] of 2930 nM and a TGI [42] of 11.5 µM. It also gave a GI50 [43] of 533 nM, a TGI [43] of 9.77 µM and a GI50 [44] of 2120 nM. It also gave a TGI [44] of 10.4 µM, a GI50 [45] of 2050 nM and a TGI [45] of 4.38 µM. The GI50 [46] was 1650 nM, the TGI [46] was 10.5 µM and the GI50 [47] was 1560 nM. For the same compound, the TGI [47] was 11.5 µM, the GI50 [48] was 1950 nM and the TGI [48] was 11.9 µM. It also gave a GI50 [49] of 1470 nM, a TGI [49] of 10.8 µM and a GI50 [50] of 649 nM. The TGI [50] was 3.57 µM, the GI50 [51] was 2970 nM and the TGI [51] was 12.7 µM. For the same compound, the GI50 [52] was 751 nM, the TGI [52] was 7.71 µM and the GI50 [53] was 1790 nM. It also gave a TGI [53] of 8.31 µM, a GI50 [54] of 2410 nM and a TGI [54] of 9.94 µM. The GI50 [55] was 3.33 µM, the TGI [55] was 16.7 µM and the GI50 [56] was 2800 nM. It also gave a TGI [56] of 14.5 µM, a GI50 [57] of 2650 nM and a TGI [57] of 13.3 µM.
